Data reported in US8628762B2, “T-helper cell type 17 lineage-specific adjuvants, compositions and methods” (Icahn School of Medicine at Mount Sinai, priority 2008, dated 2014).
“Also recorded” adds a separate entry of the source.

Columns and labels:
A20 cells = assay: Inhibition of anti-Fas induced apoptosis, Annexin-V/7-AAD flow cytometry; type: cell-based; settings: anti-Fas (anti-CD95), four hours, Annexin V/7AAD staining
[1] = system: caspase-9 and caspase-3, caspase-8 and caspase-10, and caspase-12; settings: cited from earlier work
[2] = system: intestinal epithelial cells; assay: TUNEL staining of colon sections of C. rodentium infected mice; type: in vivo, C3H/HeOuJ mice; settings: 20 mg/kg intraperitoneally on days 0, 1, 2, 3, and 5, colons day 6
Experimental: Colons of C3H/HeOuJ mice were harvested on day 6 and flushed with PBS. Tissues were fresh-frozen in O.C.T. Compound (Sakura Finetek, Zoeterwoude, The Netherlands) and stored at −80° C. Sections of 6 μm were cut and fixed with either 4% paraformaldehyde or ice-cold acetone for 1 h, dried, and stored at −20° C. TUNEL staining was performed using the In Situ Cell Death Detection Kit, TMR Red (Roche) according to manufacturer's instructions. For immunostaining, sections were blocked and incubated with primary antibodies in a humidified atmosphere for 1 hour at room temperature. After washing, conjugated secondary antibodies were added for 35 minutes. The slides were then washed and mounted with Fluoromount-G (Southern Biotech, Birmingham, Ala.). […] Analyses were performed using 10× and 20× dry objectives on a Nikon Eclipse E-600 fluorescence microscope and Adobe® Photoshop® software (Adobe Systems, San Jose, Calif.).
(§1) WT and mutant C. rodentium were prepared by incubation with shaking at 37° C. for 8 hours in LB broth medium. After 8 hours, the bacterial density was assessed at an optical density of 600 nm and confirmed by plating of serial dilutions. […]

[3] = system: IL-17+ CD4 T-cells in the lamina propria; assay: IL-17+ CD4 T-cells in lamina propria of C. rodentium infected mice (flow cytometry); type: in vivo, C57BL/6J and C3H/HeOuJ mice
Experimental: (§2) The small intestines and colons of C57BL/6J or C3H/HeOuJ mice were harvested at the indicated times. […] To prepare IEL/LPL, small intestines and colons were flushed with HBSS medium without calcium or magnesium (Gibco). Intestines were cut longitudinally and washed twice briefly in HBSS, 2% FBS in 6-well plates and then placed in 15 mL ice-cold HBSS, 2% FBS in 50-mL conical tubes and vortexed at maximum setting for 15-20 seconds. Tissue was removed using long forceps into a new tube with 15 mL ice-cold HBSS, 2% FBS and vortexed again twice, for a total of three washes. The tissues were then placed in 50-mL conical tubes containing 25 mL, HBSS, 5% FBS, and 1 mM DTT (Sigma-Aldrich). Tubes were incubated on a rocker at 37° C. for 20 minutes followed by vortexing extensively at maximum setting. For IEL, fractions were collected after two rounds of 20 minutes in HBSS/FBS/DTT. Tissues were then placed in fresh tubes containing 25 mL of PBS with 1.3 mM EDTA, incubated on a rocker for 60 minutes at 37° C. and vortexed. […]
as §1

[4] = system: infection induced barrier function; settings: cited from earlier work
[5] = system: IL-17+ CD4 T-cells in lamina propria; assay: DSS-induced damage of the intestinal epithelium, IL-17+ CD4 T-cells in lamina propria lymphocytes; type: in vivo, C57BL/6 mice; settings: DSS in water for seven days, sacrificed on day 9, small intestines and colons
Experimental: as §2, §1

Molecule: CC(C)[C@H](NC(=O)c1ccc2ccccc2n1)C(=O)N[C@@H](CC(=O)O)C(=O)COc1c(F)cccc1F [Q-VD-OPH]
- Fas-induced apoptosis (A20 cells): protected from undergoing Fas-induced apoptosis; also recorded: inhibits apoptosis
- prevention of apoptosis by pathway ([1]; caspase-9 and caspase-3, caspase-8 and caspase-10, and caspase-12 pathways): equally effective in preventing apoptosis mediated by the three major apoptotic pathways
- prevention of apoptosis compared with other caspase inhibitors [1]: significantly more effective in preventing apoptosis than ZVAD-fmk and Boc-D-fmk
- toxicity to cells [1]: not toxic to cells even at extremely high concentrations
- numbers of TUNEL+ cells [2]: decreased numbers of TUNEL^+ cells
- number of IL-17+ CD4 T-cells ([3]; C. rodentium infected C57BL/6J mice): levels similar to those found in uninfected mice
- number of IL-17+ CD4 T-cells ([3]; both strains of C. rodentium infected mice): profoundly diminished the number of IL-17^+ CD4 T-cells
- effect on infection induced barrier function [4]: has no effects on infection induced barrier function

Molecule: dextran sulfate sodium [dextran sulfate sodium (DSS)]
- IL-17+ CD4 T-cells [5]: did not increase IL-17^+ CD4 T-cells over uninfected controls
